US4014999A, “Halo-steroidal thioketals for treating inflammation” (Ortho Pharmaceutical Corporation, priority 1976, dated 1977)

Tested on: left hind paw inflammation in rats with adjuvant arthritis
Experiment: Therapeutic Treatment of Adjuvant Arthritis in Rats (left hind paw inflammation)
Assay type: in vivo, Carworth Wistar (Lewis) rats
Method: Carworth Wistar (Lewis) rats weighing approximately 200 grams are anesthetized with ether, weighed and their hind paws measured by means of a mercury displacement method. The left hind paw is injected intradermally with heat-killed Mycobacterium tuberculosis in white mineral oil. Measurements of body weight and paw volume are obtained on days 2, 5, 10, 15, 20 and 25. Therapeutic treatment is started on day 15.
Following the injection with Mycobacterium tuberculosis, a primary inflammation develops immediately in the injected paw. Secondary inflammation of the joints of the other legs and feet, nodules on the tail and red spots on the ears develop about day 10-15. The object of the test is to determine the anti-inflammatory effects of the drug treatments.
Groups of rats (five rats/group) are treated as follows: One group receives no Mycobacterium tuberculosis and is the negative control group. One group receives Mycobacterium tuberculosis but no anti-inflammatory drug and is the positive control group. Other groups receive Mycobacterium tuberculosis and either oral or topical test compounds or standard anti-inflammatory agents beginning on day 15 and are considered experimental groups. Experimental anti-inflammatory and standard anti-inflammatory compounds are administered either once every five days, i.e., after grading on days 15 and 20, or once/day on days 15-24.
In the topical studies a measured amount of drug is mixed into about 0.5 ml of SILASTIC* Medical Adhesive (or other appropriate vehicle) and applied to cover the left hind paw. Rats so treated are housed individually to eliminate the removal of the medication by another rat. The following, Tables 1 and 2 illustrate the anti-inflammatory potency and efficacy of the oral and topical treatments.

[1] = oral, once per day, 0.00375 mg/kg
[2] = oral, once per day, 0.00750 mg/kg
[3] = oral, once per day, 0.01500 mg/kg
[4] = oral, once per day, 0.03000 mg/kg
[5] = oral, once per day, 0.06250 mg/kg
[6] = oral, once per day, 0.12500 mg/kg

| Structure (SMILES) | Percent Inhibition of Left Hind Paw Inflammation (oral, once every five days, 0.075 mg/kg/5 days) | Percent Inhibition of Left Hind Paw Inflammation (oral, once every five days, 0.150 mg/kg/5 days) | Percent Inhibition of Left Hind Paw Inflammation (oral, once every five days, 0.300 mg/kg/5 days) | Percent Inhibition of Left Hind Paw Inflammation (oral, once every five days, 0.625 mg/kg/5 days) | Percent Inhibition of Left Hind Paw Inflammation (oral, once every five days, 1.250 mg/kg/5 days) | Percent Inhibition of Left Hind Paw Inflammation (oral, once every five days, 2.500 mg/kg/5 days) | Percent Inhibition of Left Hind Paw Inflammation [1] | Percent Inhibition of Left Hind Paw Inflammation [2] | Percent Inhibition of Left Hind Paw Inflammation [3] | Percent Inhibition of Left Hind Paw Inflammation [4] | Percent Inhibition of Left Hind Paw Inflammation [5] | Percent Inhibition of Left Hind Paw Inflammation [6] | Percent Inhibition of Left Hind Paw Inflammation (oral, once per day, 0.25000 mg/kg) | Percent Inhibition of Left Hind Paw Inflammation (topical (in SILASTIC Medical Adhesive), once every five days, 0.300 mg/kg/5 days) | Percent Inhibition of Left Hind Paw Inflammation (topical (in SILASTIC Medical Adhesive), once every five days, 0.625 mg/kg/5 days) | Percent Inhibition of Left Hind Paw Inflammation (topical (in SILASTIC Medical Adhesive), once every five days, 1.250 mg/kg/5 days) | Percent Inhibition of Left Hind Paw Inflammation (topical (in SILASTIC Medical Adhesive), once every five days, 2.500 mg/kg/5 days) |
| --- | --- | --- | --- | --- | --- | --- | --- | --- | --- | --- | --- | --- | --- | --- | --- | --- | --- |
| CC1(C)O[C@@H]2C[C@H]3[C@@H]4C[C@H](F)C5=CC6(C=C[C@]5(C)[C@@]4(F)[C@@H](O)C[C@]3(C)[C@]2(C(=O)CO)O1)SCCS6 [Compound A, 6α,9-difluoropregna-1,4-diene-11β,16α,17,21-tetrol-3,20-dione-3-ethylenedithioketal-16,17-acetonide] | 14.7% | 15.3% | 18.1% | 29.0% | 35.0% | 44.3% | 5% | 9% | 43% | 34% | 60% | 83% | 95% | 31.1% | 52.6% | 57.5% | 64.5% |
| CC1(C)O[C@@H]2C[C@H]3[C@@H]4C[C@H](F)C5=CC(=O)C=C[C@]5(C)[C@@]4(F)[C@@H](O)C[C@]3(C)[C@]2(C(=O)CO)O1 [Compound B, fluocinolone acetonide, reference compound] |  |  |  |  |  |  | 19% | 15% | 32% | 66% | 76% | 64% |  |  |  |  |  |
